Source: article PMC12203311, “Design, synthesis, in silico and in vitro evaluation of pyrrole–indole hybrids as dual tubulin and aromatase inhibitors with potent anticancer activities” (RSC Advances, 2025)

Experiments:
HL-60 (TB) = test: NCI60 five-dose screen; assay type: cell-based; settings: Homo sapiens, leukemia; for CC50: read-out: LC50 (the source's name)
HOP-62 = test: NCI60 five-dose screen; assay type: cell-based; settings: Homo sapiens, HOP-62, NSC lung cancer; for CC50: read-out: LC50 (the source's name)
porcine brain tubulin = target: T1, porcine brain tubulin (Sus scrofa, UniProt P02550+P02554); test: Tubulin polymerisation assay (fluorescence-based); assay type: biochemical; settings: 10 µM, 37 °C
T1 construct: a solution containing porcine brain tubulin (2 mg mL^−1); purchased Cytoskeleton BK011P; host or cells: porcine brain (tissue-purified)
T1 sequence (P02554 whole entry): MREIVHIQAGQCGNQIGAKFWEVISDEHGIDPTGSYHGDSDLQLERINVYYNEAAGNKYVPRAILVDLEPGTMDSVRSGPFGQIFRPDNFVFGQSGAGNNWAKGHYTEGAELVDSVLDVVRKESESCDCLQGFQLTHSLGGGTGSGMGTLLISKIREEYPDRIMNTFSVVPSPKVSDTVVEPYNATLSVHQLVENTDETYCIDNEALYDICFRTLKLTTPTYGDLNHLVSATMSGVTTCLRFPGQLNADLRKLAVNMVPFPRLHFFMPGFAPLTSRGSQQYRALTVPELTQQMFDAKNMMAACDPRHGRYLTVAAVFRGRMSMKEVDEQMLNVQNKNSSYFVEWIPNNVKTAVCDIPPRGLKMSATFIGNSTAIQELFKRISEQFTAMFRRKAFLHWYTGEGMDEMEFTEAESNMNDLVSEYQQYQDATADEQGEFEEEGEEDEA
T1 sequence (P02550 whole entry): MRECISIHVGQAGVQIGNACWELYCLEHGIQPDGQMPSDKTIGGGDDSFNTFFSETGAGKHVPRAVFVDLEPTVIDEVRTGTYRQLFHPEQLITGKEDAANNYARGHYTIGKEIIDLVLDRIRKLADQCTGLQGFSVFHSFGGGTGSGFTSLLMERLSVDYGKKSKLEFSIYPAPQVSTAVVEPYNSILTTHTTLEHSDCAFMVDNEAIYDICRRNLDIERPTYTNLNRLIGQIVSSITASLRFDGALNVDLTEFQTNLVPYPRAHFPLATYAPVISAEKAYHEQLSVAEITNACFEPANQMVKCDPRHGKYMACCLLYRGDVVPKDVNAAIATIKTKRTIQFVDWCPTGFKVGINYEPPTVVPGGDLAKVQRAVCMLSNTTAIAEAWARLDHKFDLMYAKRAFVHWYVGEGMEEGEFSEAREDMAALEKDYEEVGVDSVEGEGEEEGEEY
Experimental: The tubulin polymerisation experimental protocol followed the method described in this literature.[28] The experimental was using fluorescence-based assay kit (Cytoskeleton, catalog no. BK011P). In Brief, 5 µL of test compounds was added to a 96-well plate, then mix with 50 µL of a solution containing porcine brain tubulin (2 mg mL^−1) in buffer with 20% glycerol and 1 mM GTP. A microplate reader (Varioskan™ LUX multimode microplate reader, Thermo Scientific™) was used to measure fluorescence intensity every 60 seconds for 60 minutes, with excitation at 360 nm and emission at 450 nm, maintained at 37 °C throughout the experiment.

COLO 205 = test: NCI60 five-dose screen; assay type: cell-based, human; settings: Homo sapiens; for GI50: COLO 205, colon cancer; for CC50: COLO 205, COLO 205, colon cancer, read-out: LC50 (the source's name)
NCI-H460 = test: NCI60 five-dose screen; assay type: cell-based; settings: Homo sapiens, NCI-H460, NSC lung cancer; for CC50: read-out: LC50 (the source's name)
RXF 393 = test: NCI60 five-dose screen; assay type: cell-based; settings: Homo sapiens, RXF 393, renal cancer; for CC50: read-out: LC50 (the source's name)
SR = test: NCI60 five-dose screen; assay type: cell-based; settings: Homo sapiens, leukemia; for CC50: read-out: LC50 (the source's name)
SK-MEL-28 = test: NCI60 five-dose screen; assay type: cell-based; settings: Homo sapiens, SK-MEL-28, melanoma; for CC50: read-out: LC50 (the source's name)
NCI-H23 = test: NCI60 five-dose screen; assay type: cell-based; settings: Homo sapiens, NCI-H23, NSC lung cancer; for CC50: read-out: LC50 (the source's name)
CAKI-1 = test: NCI60 five-dose screen; assay type: cell-based; settings: Homo sapiens, CAKI-1, renal cancer; for CC50: read-out: LC50 (the source's name)
[1] = tested on: NCI60 human cancer cell line panel; test: NCI60 five-dose screen, ranges over the panel; assay type: cell-based; settings: five-dose experiment, all cell lines, read-out: GI50 values (range over the panel)

Compound | GI50 (HL-60 (TB)) [µM] | CC50 (HL-60 (TB)) [µM] | GI50 (HOP-62) [µM] | CC50 (HOP-62) [µM] | RFU in tubulin polymerization assay (porcine brain tubulin) [arbitrary units] | GI50 (COLO 205) [µM] | GI50 (NCI-H460) [µM] | CC50 (NCI-H460) [µM] | GI50 (RXF 393) [µM] | CC50 (RXF 393) [µM] | GI50 (SR) [µM] | CC50 (SR) [µM] | GI50 (SK-MEL-28) [µM] | CC50 (SK-MEL-28) [µM] | GI50 (NCI-H23) [µM] | CC50 (NCI-H23) [µM] | GI50 (CAKI-1) [µM] | CC50 (CAKI-1) [µM] | CC50 (COLO 205) [µM] | GI50 [1] [µM]
CCc1c[nH]c(/C=N/NC(=O)c2[nH]c3ccc(Br)cc3c2-c2ccccc2)c1 [Derivative 3t, (E)-5-Bromo-N′-((4-ethyl-1H-pyrrol-2-yl)methylene)-3-phenyl-1H-indole-2-carbohydrazide] | 0.237 | 91.9 | 1.35 | 37.5 | ~55 | 0.207 | 0.346 | 20.2 | 0.217 | 21 | 0.446 | > 100 | 0.839 | 46.6 | 0.408 | 37.4 | 1.05 | 34.4 | – | –
O=C(N/N=C/c1ccc[nH]1)c1[nH]c2ccc(Br)cc2c1-c1ccccc1 [Derivative 3a, (E)-N′-((1H-Pyrrol-2-yl)methylene)-5-bromo-3-phenyl-1H-indole-2-carbohydrazide] | 0.242 | > 100 | 0.684 | 32.6 | ~55 | 0.261 | 0.318 | 12.5 | 0.339 | 35.1 | 0.16 | > 100 | 0.488 | 37.4 | 0.504 | 37.7 | 0.257 | 30.9 | 35.1 | –
O=C(N/N=C/c1cc(Br)c(Br)[nH]1)c1[nH]c2ccc(Br)cc2c1-c1ccccc1 [Derivative 3f, (E)-5-Bromo-N′-((4,5-dibromo-1H-pyrrol-2-yl)methylene)-3-phenyl-1H-indole-2-carbohydrazide] | 2.38 | 88.8 | 3.52 | > 100 | – | 3.36 | 2.53 | 32.7 | 1.55 | 34.3 | – | – | 5.1 | 47 | 2.62 | 34 | 1.38 | 40.9 | 48.8 | 0.53 to 6.8
Cc1cc(C)c(/C=N/NC(=O)c2[nH]c3ccc(Br)cc3c2-c2ccccc2)[nH]1 [Derivative 3c, (E)-5-Bromo-N′-((3,5-dimethyl-1H-pyrrol-2-yl)methylene)-3-phenyl-1H-2-carbohydrazide] | 2.4 | > 100 | 2.97 | 69.3 | – | 3.25 | 2.83 | 37.9 | 2.26 | 35 | – | – | 3.81 | 38.8 | 2.59 | 35.2 | 3.17 | 39.1 | 52.3 | 1.77 to 8.25
